According to US10208000B2, “Eis inhibitors” (priority 2015, dated 2019):

Test system: K204 Mtb
Format: cell-based, Mycobacterium tuberculosis

CC1=C(c2ccc(C)cc2)S(=O)(=O)N=C1NCCN1CCOCC1 [Compound 35e]
overcoming resistance to KAN in Mtb K204 (in words): did not overcome resistance to KAN

CCN1CCN(CCNC2=NS(=O)(=O)C(c3ccc(OC)cc3)=C2C)CC1 [Compound 37d]
overcoming resistance to KAN in Mtb K204 (in words): did not overcome resistance to KAN

CC1=C(c2ccc(F)cc2)S(=O)(=O)N=C1NCc1ccco1 [Compound 87b]
overcoming resistance to KAN in Mtb K204 (in words): did not overcome resistance to KAN

CC1=C(c2ccc(F)cc2)S(=O)(=O)N=C1NCc1ccccc1 [Compound 89b]
overcoming resistance to KAN in Mtb K204 (in words): did not overcome resistance to KAN

CC1=C(c2ccc(C)c(C)c2)S(=O)(=O)N=C1NCC(=O)NCc1ccc2c(c1)OCO2 [Compound 115i]
overcoming resistance to KAN in Mtb K204 (in words): did not overcome resistance to KAN

CCCNC1=NS(=O)(=O)C(c2ccc(F)cc2)=C1C [Compound 139b]
overcoming resistance to KAN in Mtb K204 (in words): did not overcome resistance to KAN

CCCNC1=NS(=O)(=O)C(c2ccc(C)cc2)=C1C [Compound 139e]
overcoming resistance to KAN in Mtb K204 (in words): did not overcome resistance to KAN

CCCNC1=NS(=O)(=O)C(c2ccc(C)c(C)c2)=C1C [Compound 139i]
overcoming resistance to KAN in Mtb K204 (in words): did not overcome resistance to KAN
